From the CATMoS acute toxicity set (Mansouri et al. 2021)

Experiment: rat acute oral toxicity
Details: in vivo
From the text: […]The data set underlying the modeling effort for this project was initially compiled by NICEATM and U.S. EPA’s CCTE. Briefly, LD50 data were collected from rat acute oral systemic toxicity tests, including limit tests, ranges/confidence intervals, and discrete LD50 values. The full data set included 21,200 LD50 entries for 15,688 substances. […] Data were reviewed to ensure that LD50 values with obvious errors in the extracted data such as unit conversion errors (e.g., comma and decimal separator misplacements) were either fixed or removed. After this review, 16,209 LD50 values remained. Many of the chemicals represented had multiple LD50 entries, requiring that a single representative value per Chemical Abstracts Service Registry Number (CASRN) identifier be defined to facilitate modeling efforts. Based on ATWG feedback and to define the representative LD50 as a protective value while accounting for the distribution across multiple LD50s, the median of the lowest quartile was computed using only discrete LD50 values (omitting limit test data and range and confidence interval data). A detailed summary of the data compilation is available online on the NICEATM webpage dedicated to the collaborative modeling project (NTP 2020).
[…][…] For categorical designations, limit test and range/confidence interval LD50 data were integrated wherever possible. As such, the number of chemicals with end point values/calls varies across the modeling end points (Table 3) based on whether chemicals had representative LD50 values and/or other data. If a chemical had both, the representative value was used to determine categorical calls rather than limit test data. Some data were useable only for certain end points and categories depending on the thresholds. For example, ranges that spanned multiple hazard categories were considered only for the binary (very toxic/nontoxic) end points and omitted from rendering a determination for hazard category assignment.
[…]The final data set comprising 11,992 chemicals was split into training and evaluation sets […], respectively. This process was performed semirandomly by ordering chemicals based on the five end points (categorical and continuous LD50 values) and partitioning every fourth record into the evaluation set accordingly. This approach was taken to ensure an equivalent distribution of the LD50 values and the different hazard categories between the training and the evaluation sets without supervised sampling of the chemicals based on structures (Figure 1A). The sources of the chemical structures were also kept equivalent between the two sets, with chemical structures obtained from DSSTox, being the highest quality, representing over 75% of each set (Figure 1B).

SMILES | LD50
O=P(Oc1ccccc1)(Oc1ccccc1)Oc1ccccc1 | 3500 mg/kg
O=[N+]([O-])c1cc(Cl)ccc1Cl | 1000 mg/kg
C=CC[N+](C)(C)CC=C | 2520 mg/kg
CCCCC(CC)(CO)CO | 2800 mg/kg
CCCCCCC(=O)O | 7000 mg/kg
OCCOCCO | 12600 mg/kg
CCCC(C)=O | 1600 mg/kg
Cc1ccc(N)cc1N | 73 mg/kg
Clc1ccc(C(Cl)(Cl)Cl)cc1Cl | 1420 mg/kg
CON(C)C(=O)Nc1ccc(Cl)c(Cl)c1 | 1150 mg/kg
CCCCCCCCCCCCCCCCCC[N+](C)(C)CCCCCCCCCCCCCCCCCC | 11300 mg/kg
N#CC(Br)Br | 245 mg/kg
OCC(F)(F)F | 153 mg/kg
Cc1cccc(N=C=O)c1 | 2930 mg/kg
C=C(C)C(=O)OCCCC | 16000 mg/kg
Cc1ccccc1NC(=N)NC(=N)N | 800 mg/kg
CN(C)CCCCCCN(C)C | 238 mg/kg
ClC1=C(Cl)C2(Cl)C3C(Cl)OC(Cl)C3C1(Cl)C2(Cl)Cl (configuration not stated) | 4.8 mg/kg
CC(O)C(=O)O (configuration not stated) | 3540 mg/kg
c1ccc(CNc2[nH]cnc3ncnc2-3)cc1 | 1300 mg/kg
CCCCC(CC)COC(=O)CC(C(=O)OCC(CC)CCCC)S(=O)(=O)O (configuration not stated) | 1900 mg/kg
O=C(O)C1(C(=O)Nc2ccc(Cl)cc2Cl)CC1 | 208 mg/kg
Cc1ccncc1 | 440 mg/kg
Oc1ccc(O)cc1 | 302 mg/kg

SMILES | LD50
CCC(C)=NO[Si](ON=C(C)CC)(ON=C(C)CC)ON=C(C)CC | 2450 mg/kg
CCNC(=O)CSP(=S)(OC)OC | 125 mg/kg
CC(=O)OCCOC(C)=O | 6850 mg/kg
Cc1ccc([N+](=O)[O-])cc1 | 2050 mg/kg
CCCCOC(=O)C(C)Oc1ccc(Oc2ccc(C(F)(F)F)cn2)cc1 (configuration not stated) | 2910 mg/kg
CC(C)N | 111 mg/kg
CCNc1nc(Cl)nc(NC(C)(C)C#N)n1 | 149 mg/kg
C=CCCC | 4600 mg/kg
O=C(O)c1ccc2c(c1)C(=O)OC2=O | 2030 mg/kg
CCCCC(CC)C(=O)O (configuration not stated) | 2040 mg/kg
CCOP(=S)(OCC)Oc1cc(C)nc(C(C)C)n1 | 92 mg/kg
ClC=C(Cl)Cl | 4920 mg/kg
Cc1ccc(S(C)(=O)=O)cc1[N+](=O)[O-] | 933 mg/kg
O=Cc1ccco1 | 100 mg/kg
CCOP(=O)(OCC)OCC | 1160 mg/kg
CN(C)CCC=C1c2ccccc2CCc2ccccc21 | 280 mg/kg
CN(C)c1nc(=O)n(C2CCCCC2)c(=O)n1C | 1200 mg/kg
CC1CCC(CO)CC1 (configuration not stated) | 707 mg/kg
O=C=Nc1ccc(Cl)c(Cl)c1 | 91 mg/kg
C#CC(C)(C)NC(=O)c1cc(Cl)cc(Cl)c1 | 3350 mg/kg
CC1(C)CC(NCCCCCCNC2CC(C)(C)NC(C)(C)C2)CC(C)(C)N1 | 820 mg/kg
COCCOCCOCCO | 11300 mg/kg
CC(C)[C@H](C(=O)O[C@H](C#N)c1cccc(Oc2ccccc2)c1)c1ccc(Cl)cc1 | 88 mg/kg
Cc1cc(Cl)ccc1OCC(=O)O | 700 mg/kg

SMILES | LD50
COc1nc(NC(C)C)nc(NC(C)C)n1 | 503 mg/kg
Nc1cccc([N+](=O)[O-])c1 | 535 mg/kg
CCNc1nc(NC(C)C)nc(SC)n1 | 1060 mg/kg
COCC(=O)N(c1c(C)cccc1C)C(C)C(=O)OC (configuration not stated) | 566 mg/kg
CCO[Si](CCCN)(OCC)OCC | 1570 mg/kg
O=C=NCc1cccc(CN=C=O)c1 | 3200 mg/kg
Oc1nc2ccccc2[nH]1 | 1930 mg/kg
ClC(Cl)=C(Cl)Cl | 2630 mg/kg
O=[N+]([O-])/N=C1\NCCN1Cc1ccc(Cl)nc1 | 410 mg/kg
Clc1cc2c(cc1Cl)Oc1cc(Cl)c(Cl)cc1O2 | 0.02 mg/kg
C#CCN1CC(=O)N(COC(=O)[C@@H]2[C@@H](C=C(C)C)C2(C)C)C1=O | 900 mg/kg
CC(CCl)OC(C)CCl (configuration not stated) | 240 mg/kg
Clc1ccccc1 | 1110 mg/kg
O=C(NCc1cccnc1)Nc1ccc([N+](=O)[O-])cc1 | 4.75 mg/kg
C1CNCCN1 | 1980 mg/kg
O=CCCCC=O | 134 mg/kg
OC[P+](CO)(CO)CO | 161 mg/kg
CC(C)(C)N | 44 mg/kg
CSSC | 290 mg/kg
CC[C@H]1OC(=O)[C@H](C)[C@@H](O[C@H]2C[C@@](C)(OC)[C@@H](O)[C@H](C)O2)[C@H](C)[C@@H](O[C@@H]2O[C@H](C)C[C@H](N(C)C)[C@H]2O)[C@](C)(O)C[C@@H](C)C(=O)[C@H](C)[C@@H](O)[C@]1(C)O | 4600 mg/kg
CCC(=O)C(CC(C)N(C)C)(c1ccccc1)c1ccccc1 (configuration not stated) | 30 mg/kg
OCCOCCOc1ccccc1 | 2140 mg/kg
NCCCCCCN | 750 mg/kg
COc1ccc(C(=O)c2ccccc2)c(O)c1 | 7400 mg/kg
